# Results as given in PubChem BioAssay AID179 (DTP/NCI, 2004).
# Active and inactive are the calls of the source.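 The calls were made as follows: active = compounds giving half or more protection of infected cells from virus-caused growth loss, again on retest; inactive = the rest.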
# Test system: CEM cells HIV-1 protection, formazan growth assay
# Assay: NCI AIDS Antiviral Assay
# Details: for IC50: measured here: growth of uninfected CEM cells
# Outline: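 Five concentrations of each compound were applied to infected and uninfected human CEM cells. Protection from HIV-1 was judged from growth measured with a soluble formazan assay.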
Compound,EC50 [µM],IC50 [µM],outcome
COc1ccc2nc3cc(Cl)ccc3c(Sc3ccc([N+](=O)[O-])cc3)c2c1,> 4.79,> 4.79,–
CC12CC(=O)Nc3ccccc3N1C(c1ccccc1)=NO2 (stereo not drawn),> 200,> 200,–
Clc1ccc(Oc2ccc(N=Cc3ccc(Cl)cc3Cl)cc2Cl)cc1,> 200,5.37,–
O=c1c2ccccc2nc(-c2ccccc2)n1NC1OC(CO)C(O)C(O)C1O (stereo not drawn),–,–,inactive
COc1cc(OC)nc(Nc2c(C#N)c3nc4ccccc4n3c3ccccc23)n1,> 100,> 100,–
Cn1cc(S(=O)(=O)NC(=O)Nc2ccc(Cl)cc2)c2ccccc21,> 200,27.5,–
COc1ccc(CC(=O)NCCc2ccc(OC)c(OC)c2)cc1Br,> 316,> 316,–
CC(C)[C@H]1CO[C@@H]2O[C@H](C)CC(=O)N21,> 1260,> 1260,–
CC(=O)C(=Cc1ccc(-c2ccccc2)cc1)C(C)=O,> 19.5,> 19.5,–
O=C(NCCCl)Nc1ccc(S(=O)(=O)c2ccc([N+](=O)[O-])cc2)cc1,> 200,16.2,–
N[C@H](CCC(=O)NCP(=O)(O)O)C(=O)O,> 200,> 200,–
CCOC(=O)/C=C\SCC(N)C(=O)O (stereo not drawn),> 575,309,–
CC1(O)OC(=O)C2=C1CCC1C2CCC2(C)C(O)CCC12 (stereo not drawn),> 200,> 200,–
c1cc(-c2ccc(-c3ccsc3)s2)cs1,> 200,> 200,–
CCOC(=O)C(NC(C)=O)[CH](c1ccccc1)[Sn]([Cl])([c]1ccccc1)[c]1ccccc1 (stereo not drawn),> 200,91.2,–
Cc1ccc(NP2(=O)N(Cc3ccc(Cl)cc3)CCCN2Cc2ccc(Cl)cc2)cc1,> 200,11,–
CC(C)c1ccc(/C=C2\CSCC3=C2NC(=S)NC3c2ccc(C(C)C)cc2)cc1 (stereo not drawn),> 200,42.7,–
COc1ccc(C(=O)/C(Br)=C/C(=O)O)cc1,> 427,22.9,–
O=c1c2[nH]c3cccc(Cl)c3c2cnn1-c1ccc(F)cc1,> 6.03,> 6.03,–
COC(=O)C1ON(c2ccccc2)C2c3ccccc3-c3ccccc3C12 (stereo not drawn),> 5.62,> 5.62,–
Cc1sc2[nH]c(=O)oc(=O)c2c1C,> 200,30.2,–
CC(=O)NC(=O)c1ccccc1O,> 724,389,–

Compound,EC50 [µM],IC50 [µM],outcome
CCCCCC(=O)Cc1cc(O)cc2c1C(=O)Oc1cc(O)c(C(=O)O)c(CCCCC)c1O2,> 200,33.9,–
C=C(CCCCOCOCCOC)c1ccccc1,–,–,inactive
CN(C)CCCN1c2ccccc2Sc2ccc(Cl)cc21,> 200,10.2,–
CC1(C)NNC(=S)NC1=O,> 1580,> 1580,–
CSC1N=CNc2c1sc(=S)n2-c1ccccc1 (stereo not drawn),> 33.9,> 33.9,–
Nc1cc(N)c(N=Nc2ccc(CCc3ccc(N=Nc4c(N)cc(N)cc4C(=O)O)cc3S(=O)(=O)O)c(S(=O)(=O)O)c2)c(C(=O)O)c1,> 1020,174,–
Cc1cccc(C2NC(=O)N3C(c4cccc(C)c4)NC(=O)N23)c1 (stereo not drawn),> 200,38,–
Cc1ccccc1S(=O)(=O)OC1NS(=O)(=O)c2ccccc21 (stereo not drawn),> 200,> 200,–
CC1=C(C)C(N2CCOCC2)CS(=O)(=O)O1 (stereo not drawn),> 200,> 200,–
Cc1cccc(C2=NC(C)(C)C(C)(C)N=C2c2cccc(C)n2)n1,> 81.3,> 81.3,–
Cc1ccc2c3nc4ccccc4c-3csc2c1,0.17,0.363,–
O=C(CSSCC(=O)Nc1ccc(Br)cc1)Nc1ccc(Br)cc1,–,–,inactive
COC1CCC(OS(C)(=O)=O)C(CO)O1 (stereo not drawn),–,–,inactive
Cc1nc(-c2nc(C)c(C(=O)/C=C/c3ccc([N+](=O)[O-])cc3)s2)sc1C(=O)/C=C/c1ccc([N+](=O)[O-])cc1,> 47.9,> 47.9,–
CC(=O)OCC(OC(C)=O)C(Cl)CCl (stereo not drawn),> 200,> 200,–
CCC(C)c1c(NS(=O)(=O)c2ccc(C)cc2)o[nH]c1=O (stereo not drawn),> 200,> 200,–
COc1cc(OC)cc(OCc2nc3cc(C(F)(F)F)ccc3nc2-c2ccccc2)c1,> 200,52.5,–
COC(=O)c1cccc(C)c1C1CN=NC12Cc1cc(C)cc(C)c1C2=O (stereo not drawn),> 200,12.3,–
CN(C)C(N)=NC#N,> 794,> 794,–
Cc1cc(NS(=O)(=O)c2ccc(NC(=O)COC(=O)c3cccc4c(=O)c5ccccc5[nH]c34)cc2)no1,–,–,inactive
Nc1nnc(-c2ccccc2O)o1,> 200,110,–
NC(N)=NNC(=O)CCn1[nH]c(=O)c(Cl)c(Cl)c1=O,> 813,> 813,–
